Key:
[1] = ORAC-Total (ORAClipo + ORAChydro); conditions: ORAClipo + ORAChydro
Text: An ORAC method for lipophilic antioxidants was further developed and validated using fluorescein as the fluorescent probe (Prior et al. 2003 J. Agric. Food Chem. 51: 3273-3279). This method has the advantage that similar assay conditions and standards can be used for both hydrophilic and lipophilic antioxidant components, such that the two values can be added together to obtain a total antioxidant capacity. In the present work, the ORAC value is expressed as the sum of values of both the water-soluble and fat-soluble parts. Green tea catechins (Polyphenon 60) were used as the control with the highest ORAC value among edible plants. Vitamin C and vitamin E were used as controls for water- and fat-soluble molecules, respectively. […] The SOAC scores are not included in this figure; ORAC values used are the sum of lipophilic and hydrophilic results. For each assay category, scaling was made logarithmic so that the plot on the chart resembles the associated rating. […] The larger the spatial area, the higher the overall antioxidative capacity. […] Both hydrophilic and lipophilic oxygen radical absorbance capacity (ORAC) assays were carried out at Brunswick Laboratory (Wareham, Mass.) based on the modified ORACfl method reported by Ou et al. (2001 J. Agric. Food Chem. 49: 4619-4626, 2002 J. Agr. Food Chem. 50: 3122-3128). Trolox, a water-soluble vitamin E analog, was used as the calibration standard. The data are expressed as mmole of Trolox equivalents per gram (mmol TE/g). The acceptable precision of the ORAC assay is a 15% relative standard deviation. Caffeic acid was used as the calibration standard. Hydroxyl radical ORAC (HOR-AC) is expressed as mmole caffeic acid equivalent per gram (mmol CAE/g). Trolox was used as the calibration standard. The peroxyl nitrite ORAC (NORAC) result is expressed as mmol TE/g. Alpha-tocopherol (vitamin E) was used as the calibration standard, and the singlet oxygen absorbance capacity (SOAC) result is expressed as mmole a-tocopherol equivalent (mmol VtE) per gram (Aubry et al. 1989). The abbreviation for the 1,1-diphenyl-2-picrylhydrazyl radical is DPPH. Radical-scavenging activity was measured by the change in absorbance at 517 nm with the DPPH result expressed as mmol TE/g. Similarly, FRAP is an abbreviation for the ferric reducing antioxidative power method, which utilizes chemical conversion of the yellow Fe 3+-2,4,6-tripyridyl s-triazine (TPTZ) complex to the blue Fe 2+-TPTZ complex by electron donation under acidic conditions (Okada and Okada 1998 J. Agric. Food Chem. 46: 401-406). The FRAP result is expressed as mmol TE/g (Ou et al. 2002b). Superoxide dismutase (SOD) was used as a calibration standard; the SOD result is expressed as kilo unit SOD equivalent (kunitSODeq) per gram.

[2] = Lipophilic oxygen radical absorbance capacity (ORAC-L); conditions: lipid soluble antioxidant capacity; expressed as mmol TE/g; — = No activity detected
Text: Thus the ORAC method has become a widely used method for assessing antioxidant capacity in biological samples and foods. However, because of its inability to measure both hydrophilic and lipophilic antioxidants, the method has its limitations. An ORAC method for lipophilic antioxidants was further developed and validated using fluorescein as the fluorescent probe (Prior et al. 2003 J. Agric. Food Chem. 51: 3273-3279). […] In the present work, the ORAC value is expressed as the sum of values of both the water-soluble and fat-soluble parts. […] Both hydrophilic and lipophilic oxygen radical absorbance capacity (ORAC) assays were carried out at Brunswick Laboratory (Wareham, Mass.) based on the modified ORACfl method reported by Ou et al. (2001 J. Agric. Food Chem. 49: 4619-4626, 2002 J. Agr. Food Chem. 50: 3122-3128). Trolox, a water-soluble vitamin E analog, was used as the calibration standard. The data are expressed as mmole of Trolox equivalents per gram (mmol TE/g). […] Hydroxyl radical ORAC (HOR-AC) is expressed as mmole caffeic acid equivalent per gram (mmol CAE/g). […] The peroxyl nitrite ORAC (NORAC) result is expressed as mmol TE/g. […] Radical-scavenging activity was measured by the change in absorbance at 517 nm with the DPPH result expressed as mmol TE/g. […] The FRAP result is expressed as mmol TE/g (Ou et al. 2002b).

[3] = Singlet oxygen absorbance capacity (SOAC); conditions: expressed as mmol VtE/g
Text: [table] Alpha-tocopherol (vitamin E) was used as the calibration standard, and the SOAC result is expressed as mmol VtE/g. The higher the SOAC score, the higher the singlet oxygen-quenching capacity. […] Singlet oxygen has been postulated to be a highly reactive and toxic intermediate against skin. It is known that the acne-causing bacterium P. acnes naturally produces high amounts of intracellular porphyrins, mostly coproporphyrin (Ashkenazi et al. 2003). Singlet oxygen can be generated on the skin surface from P. acnes porphyrins under sunlight and induce serious skin damage ([…] et al. 1996 Biochem. Biophys. Res. Commun. 223: 578-582). Various skin disorders progress through a singlet oxygen-dependent mechanism, including acne, atopic dermatitis, and skin aging. Both hydrophilic and lipophilic oxygen radical absorbance capacity (ORAC) assays were carried out at Brunswick Laboratory (Wareham, Mass.) based on the modified ORACfl method reported by Ou et al. (2001 J. Agric. Food Chem. 49: 4619-4626, 2002 J. Agr. Food Chem. 50: 3122-3128). Trolox, a water-soluble vitamin E analog, was used as the calibration standard. The data are expressed as mmole of Trolox equivalents per gram (mmol TE/g). The acceptable precision of the ORAC assay is a 15% relative standard deviation. Caffeic acid was used as the calibration standard. Hydroxyl radical ORAC (HOR-AC) is expressed as mmole caffeic acid equivalent per gram (mmol CAE/g). Trolox was used as the calibration standard. The peroxyl nitrite ORAC (NORAC) result is expressed as mmol TE/g. Alpha-tocopherol (vitamin E) was used as the calibration standard, and the singlet oxygen absorbance capacity (SOAC) result is expressed as mmole a-tocopherol equivalent (mmol VtE) per gram (Aubry et al. 1989). […] Radical-scavenging activity was measured by the change in absorbance at 517 nm with the DPPH result expressed as mmol TE/g. […] The FRAP result is expressed as mmol TE/g (Ou et al. 2002b). Superoxide dismutase (SOD) was used as a calibration standard; the SOD result is expressed as kilo unit SOD equivalent (kunitSODeq) per gram.

| Structure (SMILES) | ORAC-Total (Trolox equivalent) [1] | ORAC-L (Trolox equivalent) [2] | SOAC (Vitamin E equivalent) [3] |
| --- | --- | --- | --- |
| O=C1O[C@H]([C@@H](O)CO)C(O)=C1O [Vitamin C, reference compound] | 1.4 Trolox equivalent | – | – |
| Cc1c(C)c2c(c(C)c1O)CC[C@@](C)(CCC[C@H](C)CCC[C@H](C)CCCC(C)C)O2 [Vitamin E, Alpha-tocopherol, reference compound] | 0.75 Trolox equivalent | 0.75 Trolox equivalent | 1.0 Vitamin E equivalent |

Reference: patent US20110207697A1, “XANTHOHUMOL COMPOSITIONS AND METHODS FOR TREATING SKIN DISEASES OR DISORDERS” (Betal, LLC, priority 2008, published 2011)
